From patent US9273058B2 (BRISTOL-MYERS SQUIBB COMPANY, priority 2013, dated 2016)
Where two headings read alike, the source gives them in different places.

Legend:
[1] = target: CK1ε (Homo sapiens, UniProt P49674); assay: CK1ε kinase assay (Caliper LabChip electrophoretic separation of fluoresceinated peptide substrate and product); type: biochemical; settings: 200 pM CK1ε, 50 μM ATP, 1.5 μM peptide, 22 hours at room temperature
Description: (§1) CK1ε and CK1δ Kinase Assays
(§2) The kinase assay was performed in V-bottom 384-well plates. […] The reaction was incubated at room temperature for 22 hours and terminated by adding 45 μl of 35 mM EDTA to each sample. The reaction mixture was analyzed on the Caliper LABCHIP®3000 (Caliper, Hopkinton, Mass.) by electrophoretic separation of the unphosphorylated substrate and phosphorylated product. […] Compounds were dissolved at 10 mM in dimethylsulfoxide (DMSO) and evaluated at eleven concentrations. IC50 values were derived by non-linear regression analysis.

[2] = target: CK1δ (Homo sapiens, UniProt P48730); assay: CK1δ kinase assay (Caliper LabChip electrophoretic separation of fluoresceinated peptide substrate and product); type: biochemical; settings: 200 pM CK1δ, 50 μM ATP, 1.5 μM peptide, 22 hours at room temperature
Description: as §1, §2

Sequence of CK1δ (P48730 whole entry): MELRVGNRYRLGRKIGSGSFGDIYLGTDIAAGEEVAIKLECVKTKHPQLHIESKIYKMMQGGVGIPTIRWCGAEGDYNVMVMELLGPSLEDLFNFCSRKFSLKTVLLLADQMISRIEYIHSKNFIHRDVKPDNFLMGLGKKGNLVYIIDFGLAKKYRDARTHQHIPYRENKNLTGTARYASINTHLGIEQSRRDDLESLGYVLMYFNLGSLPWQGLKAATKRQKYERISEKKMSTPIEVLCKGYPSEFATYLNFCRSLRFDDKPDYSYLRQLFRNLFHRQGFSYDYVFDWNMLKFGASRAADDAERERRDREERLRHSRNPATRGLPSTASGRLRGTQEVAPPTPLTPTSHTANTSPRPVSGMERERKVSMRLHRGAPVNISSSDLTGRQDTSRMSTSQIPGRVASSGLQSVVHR
Sequence of CK1ε (P49674 whole entry): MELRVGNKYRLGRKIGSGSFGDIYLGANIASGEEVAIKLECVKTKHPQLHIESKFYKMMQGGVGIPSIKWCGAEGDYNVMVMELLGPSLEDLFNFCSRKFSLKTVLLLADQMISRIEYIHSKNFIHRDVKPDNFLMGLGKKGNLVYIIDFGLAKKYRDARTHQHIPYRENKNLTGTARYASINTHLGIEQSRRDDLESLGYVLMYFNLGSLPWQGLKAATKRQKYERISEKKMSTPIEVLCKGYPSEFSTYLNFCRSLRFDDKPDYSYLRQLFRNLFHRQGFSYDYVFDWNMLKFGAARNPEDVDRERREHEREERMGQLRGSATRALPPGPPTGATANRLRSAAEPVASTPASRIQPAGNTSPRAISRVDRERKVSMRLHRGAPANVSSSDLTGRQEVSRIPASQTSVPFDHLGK

IC50 ([1]; read-out: CK1ε IC50 range) | IC50 ([2]; read-out: CK1δ IC50 range) | IC50 ([1]; read-out: CK1ε) | IC50 ([2]; read-out: CK1δ) | Molecule
100 to 2000 nM | 100 to 2000 nM |  |  | CC(C)(C)NC(=O)N1CCn2nc(-c3cccc(OC(F)(F)F)c3)c(C(N)=O)c2C1 [Compound 138, N^5-(tert-Butyl)-2-(3-(trifluoromethoxy)phenyl)-6,7-dihydropyrazolo[1,5-a] pyrazine-3,5(4H)-dicarboxamide]
0.01 to 10 nM | 0.01 to 10 nM |  |  | CC(C)(O)[C@H](F)CNC(=O)N1CCn2nc(-c3ccc(Cl)c(Cl)c3)c(C(N)=O)c2C1 [Compound 338, (R)-2-(3,4-Dichlorophenyl)-N^5-(2-fluoro-3-hydroxy-3-methylbutyl)-6,7-dihydropyrazolo[1,5-a]pyrazine-3,5(4H)-dicarboxamide]
0.01 to 10 nM | 0.01 to 10 nM | 0.3 nM | 0.3 nM | N#Cc1ccc(NC(=O)N2CCn3nc(-c4cccc(Cl)c4)c(C(N)=O)c3C2)cc1 [Compound 166, 2-(3-Chlorophenyl)-N^5-(4-cyanophenyl)-6,7-dihydropyrazolo[1,5-a]pyrazine-3,5(4H)-dicarboxamide]
0.01 to 10 nM | 0.01 to 10 nM |  |  | CC(C)(C)C1CN(C(=O)NC2CC(F)(F)C2)Cc2c(C(N)=O)c(-c3ccc(F)c(Cl)c3)nn21 (single isomer, unassigned) [Compound A122, 7-(tert-Butyl)-2-(3-chloro-4-fluorophenyl)-N5-(3,3-difluorocyclobutyl)-6,7-dihydropyrazolo[1,5-a]pyrazine-3,5(4H)-dicarboxamide]
10 to 100 nM | 10 to 100 nM | 89.5 nM | 96.4 nM | CC(C)(C)NC(=O)N1CCn2nc(-c3cccc(Cl)c3Cl)c(C(N)=O)c2C1 [Compound 130, N^5-(tert-Butyl)-2-(2,3-dichlorophenyl)-6,7-dihydropyrazolo[1,5-a] pyrazine-3,5(4H)-dicarboxamide]
0.01 to 10 nM | 0.01 to 10 nM |  |  | N#Cc1ccc(O[C@H]2C[C@H](NC(=O)N3CCn4nc(-c5ccc(F)c(Cl)c5)c(C(N)=O)c4C3)C2)cc1 [Compound 266, 2-(3-Chloro-4-fluorophenyl)-N^5-((1r,3r)-3-(4-cyanophenoxyl)cyclobutyl)-6,7-dihydropyrazolo[1,5-a]pyrazine-3,5(4H)-dicarboxamide]
0.01 to 10 nM | 0.01 to 10 nM |  |  | CC1(NC(=O)N2Cc3c(C(N)=O)c(-c4ccc(Cl)c(Cl)c4)nn3C(CF)C2)CC(F)(F)C1 (stereo not shown) [Compound A27, 2-(3,4-Dichlorophenyl)-N^5-(3,3-difluoro-1-methylcyclobutyl)-7-(fluoromethyl)-6,7-dihydropyrazolo[1,5-a]pyrazine-3,5(4H)-dicarboxamide]
0.01 to 10 nM | 0.01 to 10 nM |  |  | NC(=O)c1c(-c2ccc(Cl)c(Cl)c2)nn2c1CN(C(=O)NC1(C(F)F)CC(F)(F)C1)CC2 [Compound 305, 2-(3,4-Dichlorophenyl)-N^5-(1-(difluoromethyl)-3,3-difluorocyclobutyl)-6,7-dihydropyrazolo[1,5-a] pyrazine-3,5(4H)-dicarboxamide]
0.01 to 10 nM | 0.01 to 10 nM |  |  | CC1(NC(=O)N2Cc3c(C(N)=O)c(-c4ccc(F)c(Cl)c4)nn3C(CF)C2)CC(F)(F)C1 (stereo not shown) [Compound A9, 2-(3-Chloro-4-fluorophenyl)-N^5-(3,3-difluoro-1-methylcyclobutyl)-7-(fluoromethyl)-6,7-dihydropyrazolo[1,5-a]pyrazine-3,5(4H)-dicarboxamide]
0.01 to 10 nM | 0.01 to 10 nM |  |  | CC12CC3CC(C)(C1)CC(NC(=O)N1CCn4nc(-c5ccc(F)c(Cl)c5)c(C(N)=O)c4C1)(C3)C2 [Compound A68, 2-(3-Chloro-4-fluorophenyl)-N^5-((1r,3R,5S,7r)-3,5-dimethyladamantan-1-yl)-6,7-dihydropyrazolo[1,5-a]pyrazine-3,5(4H)-dicarboxamide]
10 to 100 nM | 100 to 2000 nM |  |  | CC(C)(C)NC(=O)N1Cc2c(C(N)=O)c(-c3ccc(F)c(Cl)c3)nn2C(C(F)(F)F)C1 (single isomer, unassigned) [Compound A127, N^5-(tert-Butyl)-2-(3-chloro-4-fluorophenyl)-7-(trifluoromethyl)-6,7-dihydropyrazolo[1,5-a]pyrazine-3,5(4H)-dicarboxamide]
10 to 100 nM | 10 to 100 nM |  |  | CC(C)(NC(=O)N1CCn2nc(-c3ccc(F)c(Cl)c3)c(C(N)=O)c2C1)C(N)=O [Compound 219, N^5-(1-Amino-2-methyl-1-oxopropan-2-yl)-2-(3-chloro-4-fluorophenyl)-6,7-dihydropyrazolo[1,5-a] pyrazine-3,5(4H)-dicarboxamide]
10 to 100 nM | 10 to 100 nM | 27.7 nM | 24.3 nM | CC(C)(C)NC(=O)N1CCn2nc(-c3cc(Cl)cc(C#N)c3)c(C(N)=O)c2C1 [Compound 154, N^5-(tert-Butyl)-2-(3-chloro-5-cyanophenyl)-6,7-dihydropyrazolo[1,5-a] pyrazine-3,5(4H)-dicarboxamide]
0.01 to 10 nM | 0.01 to 10 nM |  |  | N#CCC1(NC(=O)N2CCn3nc(-c4ccc(F)c(Cl)c4)c(C(N)=O)c3C2)CCC1 [Compound 220, 2-(3-Chloro-4-fluorophenyl)-N^5-(1-(cyanomethyl)cyclobutyl)-6,7-dihydro pyrazolo[1,5-a]pyrazine-3,5(4H)-dicarboxamide]
0.01 to 10 nM | 0.01 to 10 nM |  |  | CC1(C)CC(NC(=O)N2CCn3nc(-c4ccc(F)c(Cl)c4)c(C(N)=O)c3C2)C1 [Compound 285, 2-(3-Chloro-4-fluorophenyl)-N^5-(3,3-dimethylcyclobutyl)-6,7-dihydropyrazolo[1,5-a]pyrazine-3,5(4H)-dicarboxamide]
0.01 to 10 nM | 0.01 to 10 nM |  |  | CS(=O)(=O)[C@H]1C[C@@H](NC(=O)N2CCn3nc(-c4ccc(Cl)c(Cl)c4)c(C(N)=O)c3C2)C1 [Compound 274, 2-(3,4-Dichlorophenyl)-N^5-((1s,3s)-3-(methylsulfonyl)cyclobutyl)-6,7-dihydropyrazolo[1,5-a] pyrazine-3,5(4H)-dicarboxamide]
100 to 2000 nM | 100 to 2000 nM |  |  | CC(C)(C)NC(=O)N1CCn2nc(-c3cncc4ccccc34)c(C(N)=O)c2C1 [Compound 133, N^5-(tert-Butyl)-2-(isoquinolin-4-yl)-6,7-dihydropyrazolo[1,5-a] pyrazine-3,5(4H)-dicarboxamide]
0.01 to 10 nM | 10 to 100 nM |  |  | CC(C)(C)NC(=O)N1Cc2c(C(N)=O)c(-c3ccc(F)c(Cl)c3)nn2C(COC(F)F)C1 (stereo not shown) [Compound A21, N^5-(tert-Butyl)-2-(3-chloro-4-fluorophenyl)-7-((difluoromethoxy)methyl)-6,7-dihydropyrazolo[1,5-a]pyrazine-3,5(4H)-dicarboxamide]
0.01 to 10 nM | 0.01 to 10 nM |  |  | NC(=O)c1c(-c2ccc(Cl)c(Cl)c2)nn2c1CN(C(=O)NC13CCC(c4ccc(F)cc4)(CC1)CC3)CC2 [Compound A89, 2-(3,4-Dichlorophenyl)-N^5-(4-(4-fluorophenyl)bicyclo[2.2.2]octan-1-yl)-6,7-dihydropyrazolo[1,5-a]pyrazine-3,5(4H)-dicarboxamide]
100 to 2000 nM | 100 to 2000 nM | 844 nM | 442 nM | CC(C)(C)NC(=O)N1CCn2nc(-c3ccncc3)c(C(N)=O)c2C1 [Compound 126, N^5-(tert-Butyl)-2-(pyridin-4-yl)-6,7-dihydropyrazolo[1,5-a]pyrazine-3,5(4H)-dicarboxamide]
0.01 to 10 nM | 0.01 to 10 nM |  |  | N#Cc1ccc([C@H]2C[C@@H](NC(=O)N3CCn4nc(-c5ccc(Cl)c(Cl)c5)c(C(N)=O)c4C3)C2)cc1 [Compound 283, N^5-((1s,3s)-3-(4-Cyanophenyl)cyclobutyl)-2-(3,4-dichlorophenyl)-6,7-dihydropyrazolo[1,5-a]pyrazine-3,5(4H)-dicarboxamide]
0.01 to 10 nM | 0.01 to 10 nM |  |  | NC(=O)c1c(-c2cccc(Cl)c2)nn2c1CN(C(=O)NC1CC(F)(F)C1)CC2CF (single isomer, unassigned) [Compound A112, 2-(3-Chlorophenyl)-N^5-(3,3-difluorocyclobutyl)-7-(fluoromethyl)-6,7-dihydropyrazolo[1,5-a]pyrazine-3,5(4H)-dicarboxamide]
0.01 to 10 nM | 0.01 to 10 nM |  |  | 2-(3-Chloro-4-fluorophenyl)-N^5-(3,3-difluorocyclopentyl)-6,7-dihydropyrazolo[1,5-a]pyrazine-3,5(4H)-dicarboxamide [Compound 332]
0.01 to 10 nM | 0.01 to 10 nM |  |  | CO[C@H]1C[C@H](NC(=O)N2CCn3nc(-c4ccc(Cl)c(Cl)c4)c(C(N)=O)c3C2)C1 [Compound 204, 2-(3,4-Dichlorophenyl)-N^5-((1r,3r)-3-methoxycyclobutyl)-6,7-dihydropyrazolo[1,5-a] pyrazine-3,5(4H)-dicarboxamide]
10 to 100 nM | 10 to 100 nM |  |  | NC(=O)c1c(-c2cccc(F)c2)nn2c1CN(C(=O)NCCC(F)(F)F)CC2 [Compound 14, 2-(3-Fluorophenyl)-N^5-(3,3,3-trifluoropropyl)-6,7-dihydropyrazolo[1,5-a]pyrazine-3,5(4H)-dicarboxamide]
0.01 to 10 nM | 0.01 to 10 nM |  |  | NC(=O)c1c(-c2ccc(Cl)c(Cl)c2)nn2c1CN(C(=O)NC1CC(C(F)F)C1)CC2 (stereo not shown) [Compound 254, 2-(3,4-Dichlorophenyl)-N^5-(3-(difluoromethyl)cyclobutyl)-6,7-dihydropyrazolo[1,5-a]pyrazine-3,5(4H)-dicarboxamide]
10 to 100 nM |  |  |  | CC(C)(NC(=O)N1CCn2nc(-c3cccc(F)c3)c(C(N)=O)c2C1)c1ccc(F)cc1 [Compound 17, 2-(3-Fluorophenyl)-N^5-(2-(4-fluorophenyl)propan-2-yl)-6,7-dihydropyrazolo[1,5-a]pyrazine-3,5(4H)-dicarboxamide]
